Test results as given in US20230151003A1, “COMPOUNDS AND METHODS OF USE” (Exelixis, Inc., priority 2020, published 2023).

Legend:
[1] = biological target: KDR (Homo sapiens, UniProt P35968); test: KDR autophosphorylation ELISA in HUVEC cells; assay type: cell-based; set-up: endogenous in cells; host or cells: HUVEC (Lonza #C2519A); conditions: Table 3 Cellular Activities, VEGF165-stimulated, phospho-KDR ELISA
Outline: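 Serum-starved (24 h) primary HUVEC were pretreated 1 h with compounds (8-point dilution, 0.3% DMSO final), then stimulated 5 min with 100 ng/mL VEGF165. Lysate phospho-KDR quantified by sandwich ELISA against a phospho-KDR standard; IC50 by 4-parameter fit, normalised to stimulated DMSO and unstimulated controls.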

[2] = biological target: T1, AXL (Homo sapiens, UniProt P30530); test: AXL autophosphorylation ELISA in A-172 cells; assay type: cell-based; conditions: Table 3 Cellular Activities, Gas6-stimulated, phospho-AXL ELISA
T1 construct: endogenous in cells; host or cells: A-172 glioblastoma cells (ATCC #CRL-1620)
T1 sequence (P30530 26-894): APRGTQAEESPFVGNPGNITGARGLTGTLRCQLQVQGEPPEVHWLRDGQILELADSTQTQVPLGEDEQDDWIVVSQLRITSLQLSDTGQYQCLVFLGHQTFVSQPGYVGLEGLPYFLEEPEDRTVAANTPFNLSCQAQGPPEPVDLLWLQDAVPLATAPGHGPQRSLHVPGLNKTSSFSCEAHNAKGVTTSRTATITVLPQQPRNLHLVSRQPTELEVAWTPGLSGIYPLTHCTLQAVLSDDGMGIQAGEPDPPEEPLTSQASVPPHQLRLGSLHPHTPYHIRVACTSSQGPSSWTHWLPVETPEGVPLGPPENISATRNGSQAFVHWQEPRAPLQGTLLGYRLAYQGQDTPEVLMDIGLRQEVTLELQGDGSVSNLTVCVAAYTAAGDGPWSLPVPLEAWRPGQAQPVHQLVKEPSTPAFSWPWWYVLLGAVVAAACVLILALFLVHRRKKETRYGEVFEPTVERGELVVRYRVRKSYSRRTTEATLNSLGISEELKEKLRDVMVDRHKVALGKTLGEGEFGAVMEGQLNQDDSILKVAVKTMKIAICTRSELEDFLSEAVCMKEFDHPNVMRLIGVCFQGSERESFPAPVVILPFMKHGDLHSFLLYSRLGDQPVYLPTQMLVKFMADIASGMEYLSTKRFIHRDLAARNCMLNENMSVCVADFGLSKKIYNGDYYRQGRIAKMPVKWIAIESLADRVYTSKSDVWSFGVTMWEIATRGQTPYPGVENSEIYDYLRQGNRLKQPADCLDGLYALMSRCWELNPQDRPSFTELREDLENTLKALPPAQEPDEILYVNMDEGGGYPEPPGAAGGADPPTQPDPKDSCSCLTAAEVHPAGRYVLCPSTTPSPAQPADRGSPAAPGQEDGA
Outline: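 Phospho-AXL in lysates measured by ELISA after Gas6 stimulation (1 μg/mL, 15 min) of A-172 cells pre-incubated 1 h with an 8-point compound dilution series in 0.3% DMSO after 24 h serum starvation. IC50 by 4-parameter logistic fit, with DMSO-treated and reference-inhibitor wells as 100% and 0% activity.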

Sequence of KDR (P35968 20-1356): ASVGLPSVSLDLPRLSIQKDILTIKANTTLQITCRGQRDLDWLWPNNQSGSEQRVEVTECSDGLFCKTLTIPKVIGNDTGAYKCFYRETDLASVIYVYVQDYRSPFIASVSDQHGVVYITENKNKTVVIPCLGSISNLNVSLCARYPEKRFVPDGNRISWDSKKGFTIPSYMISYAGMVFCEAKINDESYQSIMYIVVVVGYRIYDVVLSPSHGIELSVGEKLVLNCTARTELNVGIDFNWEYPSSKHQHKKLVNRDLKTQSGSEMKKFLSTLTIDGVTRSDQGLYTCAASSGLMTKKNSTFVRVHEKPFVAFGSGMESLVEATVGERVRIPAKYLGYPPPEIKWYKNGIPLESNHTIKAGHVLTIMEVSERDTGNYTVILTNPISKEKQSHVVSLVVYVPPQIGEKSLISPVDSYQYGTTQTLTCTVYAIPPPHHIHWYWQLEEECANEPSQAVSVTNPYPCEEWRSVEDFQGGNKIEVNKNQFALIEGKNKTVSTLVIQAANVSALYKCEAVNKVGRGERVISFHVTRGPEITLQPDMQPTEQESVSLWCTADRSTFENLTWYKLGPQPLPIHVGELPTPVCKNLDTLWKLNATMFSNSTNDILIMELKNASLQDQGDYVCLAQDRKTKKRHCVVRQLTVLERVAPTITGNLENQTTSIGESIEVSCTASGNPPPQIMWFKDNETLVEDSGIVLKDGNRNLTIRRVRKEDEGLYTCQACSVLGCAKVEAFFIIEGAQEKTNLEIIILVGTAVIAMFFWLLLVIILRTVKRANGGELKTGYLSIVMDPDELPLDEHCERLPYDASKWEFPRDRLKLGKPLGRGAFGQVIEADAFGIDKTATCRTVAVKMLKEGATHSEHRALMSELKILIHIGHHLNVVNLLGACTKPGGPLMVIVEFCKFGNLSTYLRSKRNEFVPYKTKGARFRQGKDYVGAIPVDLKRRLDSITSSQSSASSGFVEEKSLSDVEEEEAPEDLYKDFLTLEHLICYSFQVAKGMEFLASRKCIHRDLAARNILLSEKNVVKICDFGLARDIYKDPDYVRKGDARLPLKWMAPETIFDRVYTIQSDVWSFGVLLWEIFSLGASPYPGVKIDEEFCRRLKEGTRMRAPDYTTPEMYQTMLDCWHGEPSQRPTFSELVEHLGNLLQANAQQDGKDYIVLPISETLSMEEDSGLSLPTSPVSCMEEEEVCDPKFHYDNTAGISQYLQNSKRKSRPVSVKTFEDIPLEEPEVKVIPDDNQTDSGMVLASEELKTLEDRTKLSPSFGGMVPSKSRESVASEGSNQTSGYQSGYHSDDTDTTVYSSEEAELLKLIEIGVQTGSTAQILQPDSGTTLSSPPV

IC50 [1]	IC50 [2]	Structure (SMILES)
≤ 100 nM	≤ 100 nM	COc1cc2nccc(Oc3ccc(NC(=O)c4cnc(C)c(-c5cccs5)c4O)cc3F)c2nc1OC [Compound 90, N-[4-[(6,7-Dimethoxy-1,5-naphthyridin-4-yl)oxy]-3-fluoro-phenyl]-4-hydroxy-6-methyl-5-(2-thienyl)pyridine-3-carboxamide]
≤ 100 nM	≤ 100 nM	COc1cc2nccc(Oc3ccc(NC(=O)c4cnc(C)c(-c5cc(C(F)(F)F)nn5C)c4O)cc3F)c2nc1OC [Compound 105]
300 to 1000 nM	≤ 100 nM	COc1cc2nccc(Oc3ccc(NC(=O)c4cc(Br)c(C)n(-c5ccc(F)cn5)c4=O)cc3F)c2nc1OC [Compound 55, 5-Bromo-N-[4-[(6,7-dimethoxy-1,5-naphthyridin-4-yl)oxy]-3-fluorophenyl]-1-(5-fluoropyridin-2-yl)-6-methyl-2-oxopyridine-3-carboxamide]
≤ 100 nM	≤ 100 nM	C=CCc1ccc(-c2c(C)ncc(C(=O)Nc3ccc(Oc4ccnc5cc(OC)c(OC)nc45)c(F)c3)c2O)o1 [Compound 155, N-[4-[(6,7-Dimethoxy-1,5-naphthyridin-4-yl)oxy]-3-fluorophenyl]-4-hydroxy-6-methyl-5-(5-prop-2-enylfuran-2-yl)pyridine-3-carboxamide]
≤ 100 nM	≤ 100 nM	COc1cc2nccc(Oc3ccc(NC(=O)c4cnc(C)c(-c5sccc5C)c4O)cc3F)c2nc1OC [Compound 103, N-[4-[(6,7-Dimethoxy-1,5-naphthyridin-4-yl)oxy]-3-fluoro-phenyl]-4-hydroxy-6-methyl-5-(3-methyl-2-thienyl) pyridine-3-carboxamide]
≤ 100 nM	≤ 100 nM	COc1cc2nccc(Oc3ccc(NC(=O)c4c(C)nc(C)c(-c5ccc(C(C)C)o5)c4O)cc3F)c2nc1OC [Compound 148, N-[4-[(6,7-Dimethoxy-1,5-naphthyridin-4-yl)oxy]-3-fluorophenyl]-4-hydroxy-2,6-dimethyl-5-(5-propan-2-ylfuran-2-yl)pyridine-3-carboxamide]
≤ 100 nM	100 to 300 nM	COc1cc2nccc(Oc3ccc(NC(=O)c4cnc(C)c(-c5cc(C)nn5C)c4O)cc3F)c2nc1OC [Compound 136, N-[4-[(6,7-Dimethoxy-1,5-naphthyridin-4-yl)oxy]-3-fluorophenyl]-5-(2,5-dimethylpyrazol-3-yl)-4-hydroxy-6-methylpyridine-3-carboxamide]
≤ 100 nM	100 to 300 nM	C=C(C)c1ccc(-c2c(C)ncc(C(=O)Nc3ccc(Oc4ccnc5cc(OC)c(OC)nc45)c(F)c3)c2O)o1 [Compound 152, N-[4-[(6,7-Dimethoxy-1,5-naphthyridin-4-yl)oxy]-3-fluorophenyl]-4-hydroxy-6-methyl-5-(5-prop-1-en-2-ylfuran-2-yl)pyridine-3-carboxamide]
≤ 100 nM	≤ 100 nM	COc1cnc2c(Oc3ccc(NC(=O)c4cnc(C)c(-c5ccco5)c4O)cc3)ccnc2c1 [Compound 129, 5-(Furan-2-yl)-4-hydroxy-N-[4-[(7-methoxy-1,5-naphthyridin-4-yl)oxy]phenyl]-6-methylpyridine-3-carboxamide]
≤ 100 nM	≤ 100 nM	COc1cnc2c(Oc3ccc(NC(=O)c4cnc(C)c(-c5ccc(C)o5)c4O)cc3F)ccnc2c1 [Compound 97, N-[3-Fluoro-4-[(7-methoxy-1,5-naphthyridin-4-yl)oxy]phenyl]-4-hydroxy-6-methyl-5-(5-methyl-2-furyl)pyridine-3-carboxamide]
300 to 1000 nM	≤ 100 nM	COc1cnc2c(Oc3ccc(NC(=O)c4cn(CCF)c(C)c(-c5ccc(C)s5)c4=O)cc3F)ccnc2c1 [Compound 329, 1-(2-Fluoroethyl)-N-[3-fluoro-4-[(7-methoxy-1,5-naphthyridin-4-yl)oxy]phenyl]-6-methyl-5-(5-methylthiophen-2-yl)-4-oxopyridine-3-carboxamide]
≤ 100 nM	≤ 100 nM	COCc1nc(C)c(-c2ccc(C)o2)c(O)c1C(=O)Nc1ccc(Oc2ccnc3cc(OC)c(OC)nc23)c(F)c1 [Compound 117, N-[4-[(6,7-Dimethoxy-1,5-naphthyridin-4-yl)oxy]-3-fluorophenyl]-4-hydroxy-2-(methoxymethyl)-6-methyl-5-(5-methylfuran-2-yl)pyridine-3-carboxamide]
300 to 1000 nM	≤ 100 nM	COc1cnc2c(Oc3ccc(NC(=O)c4c(C)n(C)c(C)c(-c5cccs5)c4=O)cc3F)ccnc2c1 [Compound 166, N-[3-Fluoro-4-[(7-methoxy-1,5-naphthyridin-4-yl)oxy]phenyl]-1,2,6-trimethyl-4-oxo-5-thiophen-2-ylpyridine-3-carboxamide]
≤ 100 nM	≤ 100 nM	COc1cnc2c(Oc3ccc(NC(=O)c4cnc(C)c(-c5cccs5)c4O)cc3F)ccnc2c1 [Compound 100, N-[3-Fluoro-4-[(7-methoxy-1,5-naphthyridin-4-yl)oxy]phenyl]-4-hydroxy-6-methyl-5-(2-thienyl)pyridine-3-carboxamide]
≤ 100 nM	≤ 100 nM	COc1cc2nccc(Oc3ccc(NC(=O)c4c(C)nc(C)c(-c5ccnn5C)c4O)cc3F)c2nc1OC [Compound 108, N-[4-[(6,7-Dimethoxy-1,5-naphthyridin-4-yl)oxy]-3-fluoro-phenyl]-4-hydroxy-2,6-dimethyl-5-(2-methylpyrazol-3-yl) pyridine-3-carboxamide]
≤ 100 nM	≤ 100 nM	COc1cc2nccc(Oc3ccc(NC(=O)c4cnc(C)c(-c5ccnn5C)c4O)cc3F)c2nc1OC [Compound 104]
≤ 100 nM	≤ 100 nM	COc1cc2nccc(Oc3ccc(NC(=O)c4c(C)ncc(-c5cccs5)c4O)cc3F)c2nc1OC [Compound 123, N-[4-[(6,7-Dimethoxy-1,5-naphthyridin-4-yl)oxy]-3-fluorophenyl]-4-hydroxy-2-methyl-5-thiophen-2-ylpyridine-3-carboxamide]
≤ 100 nM	≤ 100 nM	COc1cc2nccc(Oc3ccc(NC(=O)c4c(C)nc(C)c(-c5ccco5)c4O)cc3F)c2nc1OC [Compound 135, N-[4-[(6,7-Dimethoxy-1,5-naphthyridin-4-yl)oxy]-3-fluorophenyl]-5-(furan-2-yl)-4-hydroxy-2,6-dimethylpyridine-3-carboxamide]
≤ 100 nM	≤ 100 nM	COc1cc2nccc(Oc3ccc(NC(=O)c4cnc(C)c(-c5ccc(C)s5)c4O)cc3F)c2nc1OC [Compound 94, N-[4-[(6,7-Dimethoxy-1,5-naphthyridin-4-yl)oxy]-3-fluoro-phenyl]-4-hydroxy-6-methyl-5-(5-methyl-2-thienyl) pyridine-3-carboxamide]
300 to 1000 nM	≤ 100 nM	COc1cc2nccc(Oc3cc(F)c(NC(=O)c4c(C)n(C)c(C)c(-c5ccco5)c4=O)cc3F)c2nc1OC [Compound 163, N-[4-[(6,7-Dimethoxy-1,5-naphthyridin-4-yl)oxy]-2,5-difluorophenyl]-5-(furan-2-yl)-1,2,6-trimethyl-4-oxopyridine-3-carboxamide]
300 to 1000 nM	≤ 100 nM	COc1cnc2c(Oc3ccc(NC(=O)c4cn(CCF)c(C)c(-c5ccsc5)c4=O)cc3F)ccnc2c1 [Compound 330, 1-(2-Fluoroethyl)-N-[3-fluoro-4-[(7-methoxy-1,5-naphthyridin-4-yl)oxy]phenyl]-6-methyl-4-oxo-5-thiophen-3-ylpyridine-3-carboxamide]
≤ 100 nM	≤ 100 nM	CCc1ccc(-c2c(C)nc(C)c(C(=O)Nc3ccc(Oc4ccnc5cc(OC)c(OC)nc45)c(F)c3)c2O)o1 [Compound 147, N-[4-[(6,7-Dimethoxy-1,5-naphthyridin-4-yl)oxy]-3-fluorophenyl]-5-(5-ethylfuran-2-yl)-4-hydroxy-2,6-dimethylpyridine-3-carboxamide]
≤ 100 nM	≤ 100 nM	COc1cc2nccc(Oc3ccc(NC(=O)c4c(C)ncc(-c5ccc(C)o5)c4O)cc3F)c2nc1OC [Compound 120, N-[4-[(6,7-Dimethoxy-1,5-naphthyridin-4-yl)oxy]-3-fluorophenyl]-4-hydroxy-2-methyl-5-(5-methylfuran-2-yl)pyridine-3-carboxamide]
